“Also recorded” adds a separate entry of the source.
Columns and labels:
[1] = tested on: Fuchs' endothelial corneal dystrophy patient-derived immortalized corneal endothelial cells; assay: Cell damage inhibitory effect on iFECD stimulated with TGF-β2 (phase contrast microscope); format: cell-based, human
Method: The medium was removed from the culture dish in which Fuchs' endothelial corneal dystrophy patient-derived immortalized corneal endothelial cells (hereinafter, referred to as disease model cells) were being cultured, and the cells were supplemented with 1×PBS (−) that was preheated to 37° C., and were washed. This operation was repeated twice. The cells were supplemented with 1×PBS (−) again and incubated for 5 minutes at 37° C. (5% CO2). After the PBS (−) was removed, the cells were supplemented with 0.05% Trypsin-EDTA (nacalai tesque, 32778-34) and incubated for 5 minutes at 37° C. (5% CO2). The cells were then suspended in a medium, and collected by centrifugation at 1500 rpm for 3 minutes. DMEM (nacalai tesque, 08456-36)+10% FBS (Biowest, S1820-500)+1% P/S (nacalai tesque, 26252-94) was used as the medium. The disease model cells were seeded in a 6-well plate at a rate of 1.5×10^5 cells per well and cultured at 37° C. (5% CO2) for 48 hours. DMEM+10% FBS+1% P/S was used as the medium.
After 48 hours, the medium was removed, and AKP-001, SB203580 (Cayman, 13067), PH-797804 (Selleck Chemicals, S2726) and VX-702 (Selleck Chemicals, 56005) were added to DMEM+2% FBS+1% P/S so that the final concentration was 0.01, 0.03, 0.1, 0.3, 1, 3, 10 and 30 μM, followed by culturing as 24-hour pretreatment. After 24 hours, the medium was removed, and AKP-001, 5B203580 (Cayman, 13067), PH-797804 (Selleck Chemicals, S2726), or VX-702 (Selleck Chemicals, S6005), together with 100 ng/ml Recombinant Human TGF-β2 (R&D systems, RND302-B2-002), were added to DMEM+2% FBS+1% P/S so that the final concentration was 0.01 μM, 0.03 μM, 0.1 μM, 0.3 μM, 1 μM, 3 μM, 10 μM, and 30 μM, followed by culturing for 24 hours. After 24 hours, cell damage was evaluated by observation with a phase contrast microscope. As a control, immortalized corneal endothelial cells that were not stimulated with TGF-β were used.

caspase 3/7 = assay: Caspase-Glo 3/7 Assay in human corneal endothelial cells in the presence of AKP-001; format: cell-based; conditions: 24 hours
Method: Cultured human corneal endothelial cells were seeded at a rate of 1×10^4 per well in a 96-well plate coated with laminin-511E8, and the cells were cultured until reaching confluence at 37° C. (5% CO^2). For the medium, used was OptiMEM-I (invitrogen, 31985-088)+8% FBS (Thermo, SH30084.03)+5 ng/mL epidermal growth factor (invitrogen, PHG0311)+20 μg/mL L-ascorbic acid 2-sesquimagnesium phosphate hydrate (SIGMA, A8960)+200 mg/L calcium chloride dihydrate (SIGMA, C7902)+0.08% chondroitin sulfate (Wako Pure Chemical Industries, Ltd., 032-14613)+50 μg/mL gentamicin (invitrogen, 15710-064)+1 μM SB431542 (WAKO, 192-16541)+10 μM SB203580 (Cayman, 13067).
Upon reaching confluence, the culturing was further conducted for one more week with OptiMEM-I (invitrogen, 31985-088)+8% FBS (Thermo, SH30084.03)+20 μg/mL+200 mg/L calcium chloride dihydrate (SIGMA, C7902)+0.08% chondroitin sulfate (Wako Pure Chemical Industries, Ltd., 032-14613)+50 μg/mL gentamicin (invitrogen, 15710-064).
After one week, the medium was removed, and a medium with 0.1 μM, 0.3 μM, 1 μM, 3 μM, 10 μM, 30 μM and 100 μM AKP-001 included therein was added, followed by culturing for 24 hours. For the medium, used was OptiMEM-I (invitrogen, 31985-088)+8% FBS (Thermo, SH30084.03)+20 μg/mL+200 mg/L calcium chloride dihydrate (SIGMA, C7902)+0.08% chondroitin sulfate (Wako Pure Chemical Industries, Ltd., 032-14613)+50 μg/mL gentamicin (invitrogen, 15710-064).
After the observation, the caspase 3/7 activity was measured by Caspase-Glo 3/7 Assay according to the following procedure. The medium was discarded to 50 μl per well, and Caspase Glo 3/7 Assay Reagent (mixture of Caspase-Glo 3/7 Assay Buffer and Caspase-Glo 3/7 Assay Substrate) (Promega, G8091) solution was added to the 50 μl/well to reach 1:1 with the medium. The operations from this point on were conducted while light was blocked. […] After standing, 80 μl was transferred to an Assay plate (Corning, 3912, Assay plate 96 well, white polystyrene), and the […] was measured using GloMax-Multi Detection System (Promega, E7051).

[2] = tested on: immortalized human corneal endothelial cells (iHCEC); assay: Cell damage by ER stress induced by thapsigargin; format: cell-based; conditions: 24 hours pretreatment, 20 μM thapsigargin 3 hours
Method: The medium was removed from a culture dish in which immortalized human corneal endothelial cells (iHCEC) were being cultured, and the cells were supplemented with 1×PBS (−) that was preheated to 37° C., and were washed. This operation was repeated twice. The cells were supplemented again with 1×PBS (−) and incubated for 5 minutes at 37° C. (5% CO2). After removing the PBS (−), the cells were supplemented with 0.05% Trypsin-EDTA (Nacalai Tesque, 32778-34) and incubated for 5 minutes at 37° C. (5% CO2). The cells were then suspended in a medium, and collected by centrifugation at 1500 rpm for 3 minutes. DMEM (Nacalai Tesque, 08456-36)+10% FBS (Biowest, S1820-500)+1% P/S (Nacalai Tesque, 26252-94) was used as the medium. Immortalized human corneal endothelial cells (lot: iHCEC1-1) were seeded on a 12-well plate at a ratio of 8×10^4 cells per well and cultured for 48 hours at 37° C. (5% CO2) while using DMEM+10% FBS+1% P/S as the medium. The medium was then removed, and each inhibitor was added to culture the cells for 24 hours using DMEM+2% FBS+1% P/S as the medium. The medium was then removed. A medium (DMEM+2% FBS+1% P/S) containing 20 μM thapsigargin (Wako, 209-17281) and AKP-001 was added to culture the cells for 3 hours. Then, the cell morphology and apoptosis were observed using a phase contrast microscope.

O=C(Cc1c(F)cccc1Cl)Nc1onc(-c2ccc(F)cc2)c1-c1ccncn1 [AKP-001, 5-[(2-chloro-6-fluorophenyl)acetylamino]-3-(4-fluorophenyl)-4-(4-pyrimidinyl)isoxazole]
damage inhibitory effect for the corneal endothelial cells ([1]; 0.01 μM): observed | disorder in the corneal endothelial cells ([1]; 0.1 μM, 0.3 μM, 1 μM and 3 μM, iFECD, pretreatment, TGF-β2 stimulation): effectively suppressed | cell damage inhibitory effect for the corneal endothelial cells ([1]; at sub-μM): exerted an inhibitory effect; also recorded: able to suppress cell damage | caspase 3/7 activity compared to the control group (caspase 3/7; 0.1 μM, 0.3 μM, 1 μM and 3 μM): no significant difference | caspase 3/7 activity compared to the control group (caspase 3/7; 10 μM, 30 μM and 100 μM): significantly activated | concentrations at which no damage to the cells is caused (caspase 3/7): ≤ 10 µM | damage to the corneal endothelial cells [2]: suppression of damage to the corneal endothelial cells was observed

From patent US11576914B2, “Drug for treating or preventing disorder caused by TGF-β signaling, and application thereof” (THE DOSHISHA, priority 2017, dated 2023)
